Assays:
[1] = system: Plasmodium falciparum (RB-1); test: Microscopic parasitaemia, chloroquine resistant strain RB-1 (reversal of chloroquine resistance); type: cell-based; conditions: for Percentage red blood cells infected with P. falciparum (RB-1): 24 h
Protocol: The activity of riminophenazines to reverse chloroquine resistance in Plasmodium falciparum was tested in the following manner:
A preliminary series of experiments were carried out using two laboratory strains of P. falciparum (RB-1 and Fab-9). These strains were obtained from the Medical Research Council, Durban, where they were characterised as being either mildly resistant or sensitive to chloroquine. The isolates were maintained in suspension culture in known manner (as described by Freese J A, Markus M B and Golenser J, 1991; Bulletin of the World Health Organization 69: 707-712).
Infected erythrocytes were diluted with human O-positive red blood cells to a parasitaemia of 0.2-0.9% and suspended to 3% in RPMI containing 44 mg/l hypoxanthine and 10% human type O serum. Aliquots (100 μl) of the suspension were dispensed into the wells of 96-well microtitre plates. To these suspensions 100 μl of the medium were added containing either chloroquine or B669 alone or in combination. The final drug concentrations were 31, 62, 125, 250 500 and 1000 nM for chloroquine and 0.125, 0.25, 0.5 and 1.0 μg/ml for B669. Relevant solvent controls were included. The plates were incubated for 24 hours at 38° C. in a desiccator gassed with 5% O2, 5% CO2 and 90% N2. Thin blood smears were prepared from each well, stained with Giemsa stain and the percentage of red blood cells infected by at least one parasite determined microscopically.

[2] = system: Plasmodium falciparum (Fab-9); test: 3H-hypoxanthine uptake, chloroquine sensitive strain Fab-9; type: cell-based; conditions: for PERCENTAGE INHIBITION (3H-hypoxanthine uptake): Fab-9
Protocol: (§1) The following experiment was done to confirm previous results which were obtained microscopically and details of which are set out in Example 1.
(§2) For this experiment the same two strains of P. falciparum, as used in Example 1 (RB-1 and Fab-9) were again used. Infected erythrocytes were diluted with human O-positive red blood cells to a parasitaemia of 0.2-0.9% and suspended to 3% in RPMI containing 44 mg/l hypxanthine and 10% human type serum. Aliquots (100 μl) of the suspension were dispensed into the wells of 96-well microtitre plates. To these suspensions 100 μl of the medium were added containing either chloroquine or B669 alone or a combination of chloroquine and B669. Relevant solvent controls were included. Negative control wells were also included containing uninfected red blood cells. The plates were incubated at 38° C. in a desiccator gassed with 5% O2, 5% CO2 and 90% N2. After 24 hours 100 μl culture medium of each well was replaced with […] of hypoxathine--free medium containing 10% human serum and 0,5μ Ci^3 H-hypoxanthine and incubated for a further 18 hours. The contents of the wells were then harvested on to glass fibre filters. The filters were washed with distilled water, dried, haemoglobin dissolved in a sodium bicarbonate solution and placed in scintillation vials containing 4 ml scintillation fluid and counted for 5 min in a liquid scintillation counter.
(§3) The percentage inhibition was calculated as follows: [formula] where CPM was the mean of two values of counts per minute for each treatment.

[3] = system: Plasmodium falciparum (RB-9); test: 3H-hypoxanthine uptake, chloroquine resistant strain (RB-9 [sic]); type: cell-based; conditions: for PERCENTAGE INHIBITION (3H-hypoxanthine uptake): RB-9 (so in the source)
Protocol: as §1, §2, §3

P. falciparum (RB-1) = test: Direct antimalarial activity, flow cytometry, strain RB-1; type: cell-based, Plasmodium falciparum
Protocol: To investigate the direct antimalarial activity of the riminophenazines B669, B4100, B4103, B4112, B4121, B4158 and B4169 against a laboratory strain of P. falciparum the following experiment was done:
A laboratory strain of P. falciparum (RB-1; obtained from Dr B L Sharp, National Malaria Research Programme, MRC, Durban) was maintained.
For these experiments malaria cultures of haematocrit 5.0% and initial parasitemia 2.0% were used. The malaria infected erythrocytes (ring stage) were incubated in microtitre plates with serial dilutions of B669, B4100, B4103, B4112, B4121, B4158 and B4169 (0.125-2 μg/ml) for 48 hours and processed for analysis on the flow cytometer as described in Example 3.

[4] = system: Plasmodium falciparum (Fab-9); test: 3H-hypoxanthine uptake, chloroquine sensitive strain Fab-9; type: cell-based; conditions: read-out: PERCENTAGE INHIBITION (3H-hypoxanthine uptake)
[5] = B669 0.125 μg/ml + chloroquine 500 nM
[6] = B669 0.25 μg/ml + chloroquine 31 nM
[7] = B669 0.25 μg/ml + chloroquine 1000 nM
[8] = B669 0.5 μg/ml + chloroquine 1000 nM
[9] = B669 1.0 μg/ml + chloroquine 1000 nM
[10] = B669 0.125 μg/ml + chloroquine 31 nM
[11] = B669 0.125 μg/ml + chloroquine 62 nM
[12] = B669 0.125 μg/ml + chloroquine 250 nM
[13] = B669 0.125 μg/ml + chloroquine 1000 nM
[14] = B669 0.25 μg/ml + chloroquine 62 nM
[15] = B669 0.25 μg/ml + chloroquine 250 nM
[16] = B669 0.25 μg/ml + chloroquine 500 nM
[17] = B669 0.5 μg/ml + chloroquine 62 nM
[18] = B669 0.5 μg/ml + chloroquine 125 nM
[19] = B669 0.5 μg/ml + chloroquine 250 nM
[20] = B669 0.5 μg/ml + chloroquine 500 nM
[21] = B669 1.0 μg/ml + chloroquine 31 nM
[22] = B669 1.0 μg/ml + chloroquine 62 nM
[23] = B669 1.0 μg/ml + chloroquine 125 nM
[24] = B669 1.0 μg/ml + chloroquine 250 nM
[25] = B669 1.0 μg/ml + chloroquine 500 nM
[26] = Plasmodium falciparum, read-out: PERCENTAGE INHIBITION (3H-hypoxanthine uptake)

## c1ccc(Nc2cc3nc4ccccc4n(-c4ccccc4)c-3cc2=NC2CCCCC2)cc1 [Compound B669, N,5-bis(phenyl)-3,5-dihydro-3-(cyclohexylimino)-2-phenazinamine]
[1]; 125 nM chloroquine, 0.125 μg/ml B669
  increase of sensitivity to chloroquine, chloroquine resistant strain: up to two fold
[1]; 500 nM chloroquine, 0.25 μg/ml B669
  increase of sensitivity to chloroquine, chloroquine resistant strain: up to three fold
[1]; B669 0.125 μg/ml + chloroquine 125 nM, *parasites morphologically abnormal
  Percentage red blood cells infected with P. falciparum (RB-1): 1.6%
[1]; [5]
  Percentage red blood cells infected with P. falciparum (RB-1): 1.3%
[1]; B669 0.125 μg/ml alone
  Percentage red blood cells infected with P. falciparum (RB-1): 3.6%
[1]; [6]
  Percentage red blood cells infected with P. falciparum (RB-1): 3.9%
[1]; B669 0.25 μg/ml + chloroquine 62 nM, *parasites morphologically abnormal
  Percentage red blood cells infected with P. falciparum (RB-1): 2.8%
[1]; B669 0.25 μg/ml + chloroquine 125 nM, *parasites morphologically abnormal
  Percentage red blood cells infected with P. falciparum (RB-1): 1.9%
[1]; B669 0.25 μg/ml + chloroquine 500 nM, *parasites morphologically abnormal
  Percentage red blood cells infected with P. falciparum (RB-1): 0.9%
[1]; [7]
  Percentage red blood cells infected with P. falciparum (RB-1): 0%
[1]; B669 0.25 μg/ml alone
  Percentage red blood cells infected with P. falciparum (RB-1): 4.0%
[1]; B669 0.5 μg/ml + chloroquine 250 nM, *parasites morphologically abnormal
  Percentage red blood cells infected with P. falciparum (RB-1): 1.4%
[1]; [8]
  Percentage red blood cells infected with P. falciparum (RB-1): 0.1%
[1]; B669 0.5 μg/ml alone
  Percentage red blood cells infected with P. falciparum (RB-1): 3.2%
[1]; B669 1.0 μg/ml + chloroquine 31 nM, *parasites morphologically abnormal
  Percentage red blood cells infected with P. falciparum (RB-1): 2.6%
[1]; B669 1.0 μg/ml + chloroquine 250 nM, *parasites morphologically abnormal
  Percentage red blood cells infected with P. falciparum (RB-1): 0.1%
[1]; [9]
  Percentage red blood cells infected with P. falciparum (RB-1): 0%
[1]; B669 1.0 μg/ml alone, *parasites morphologically abnormal
  Percentage red blood cells infected with P. falciparum (RB-1): 2.6%
[1]; B669 alone 1.0 μg/ml
  direct effect on parasite morphology: morphological deterioration of the parasites was observed
  percentage parasitaemia versus untreated control systems: did not differ from the untreated control systems
[2]; 3H-hypoxanthine uptake
  effect on sensitivity of chloroquine sensitive strain to chloroquine: did not increase the sensitivity
[2]; B669 alone 0.125-1.0 μg/ml
  sensitivity of chloroquine sensitive strain to B669 alone: sensitive to B669 alone
[2]; [10]
  PERCENTAGE INHIBITION (3H-hypoxanthine uptake): 12.9%
[2]; [11]
  PERCENTAGE INHIBITION (3H-hypoxanthine uptake): 7.4%
[2]; B669 0.125 μg/ml + chloroquine 125 nM
  PERCENTAGE INHIBITION (3H-hypoxanthine uptake): 68.3%
[2]; [12]
  PERCENTAGE INHIBITION (3H-hypoxanthine uptake): 81.4%
[2]; [5]
  PERCENTAGE INHIBITION (3H-hypoxanthine uptake): 100%
[2]; [13]
  PERCENTAGE INHIBITION (3H-hypoxanthine uptake): 100%
[2]; [6]
  PERCENTAGE INHIBITION (3H-hypoxanthine uptake): 21.0%
[2]; [14]
  PERCENTAGE INHIBITION (3H-hypoxanthine uptake): 0%
[2]; B669 0.25 μg/ml + chloroquine 125 nM
  PERCENTAGE INHIBITION (3H-hypoxanthine uptake): 34.9%
[2]; [15]
  PERCENTAGE INHIBITION (3H-hypoxanthine uptake): 85.5%
[2]; [16]
  PERCENTAGE INHIBITION (3H-hypoxanthine uptake): 100%
[2]; [7]
  PERCENTAGE INHIBITION (3H-hypoxanthine uptake): 100%
[2]; B669 0.5 μg/ml + chloroquine 31 nM
  PERCENTAGE INHIBITION (3H-hypoxanthine uptake): 60.5%
[2]; [17]
  PERCENTAGE INHIBITION (3H-hypoxanthine uptake): 91.7%
[2]; [18]
  PERCENTAGE INHIBITION (3H-hypoxanthine uptake): 93.6%
[2]; [19]
  PERCENTAGE INHIBITION (3H-hypoxanthine uptake): 100%
[2]; [20]
  PERCENTAGE INHIBITION (3H-hypoxanthine uptake): 100%
[2]; [8]
  PERCENTAGE INHIBITION (3H-hypoxanthine uptake): 100%
[2]; [21]
  PERCENTAGE INHIBITION (3H-hypoxanthine uptake): 98.8%
[2]; [22]
  PERCENTAGE INHIBITION (3H-hypoxanthine uptake): 95.9%
[2]; [23]
  PERCENTAGE INHIBITION (3H-hypoxanthine uptake): 100%
[2]; [24]
  PERCENTAGE INHIBITION (3H-hypoxanthine uptake): 100%
[2]; [25]
  PERCENTAGE INHIBITION (3H-hypoxanthine uptake): 100%
[2]; [9]
  PERCENTAGE INHIBITION (3H-hypoxanthine uptake): 100%
[2]; especially chloroquine sensitive strain
  direct anti-malaria activity: Direct anti-malaria activity
[3]; 250 nM chloroquine, 0.125-0.5 μg/ml B669
  increase of sensitivity to chloroquine, chloroquine resistant strain: up to three fold
[3]; 125 μM (so in the source) chloroquine, 0.5 and 1.0 μg/ml B669
  increase of sensitivity to chloroquine, chloroquine resistant strain: up to ten fold
[3]; [26]
  inhibition at 0.125 µg/mL: 0%
  inhibition at 0.25 µg/mL: 0%
  inhibition at 0.5 µg/mL: 0%
  inhibition at 1 µg/mL: 0%
[3]; [10]
  PERCENTAGE INHIBITION (3H-hypoxanthine uptake): 15.2%
[3]; [11]
  PERCENTAGE INHIBITION (3H-hypoxanthine uptake): 12.2%
[3]; [12]
  PERCENTAGE INHIBITION (3H-hypoxanthine uptake): 100%
[3]; [5]
  PERCENTAGE INHIBITION (3H-hypoxanthine uptake): 100%
[3]; [13]
  PERCENTAGE INHIBITION (3H-hypoxanthine uptake): 100%
[3]; [14]
  PERCENTAGE INHIBITION (3H-hypoxanthine uptake): 26.4%
[3]; [15]
  PERCENTAGE INHIBITION (3H-hypoxanthine uptake): 100%
[3]; [16]
  PERCENTAGE INHIBITION (3H-hypoxanthine uptake): 98.8%
[3]; [7]
  PERCENTAGE INHIBITION (3H-hypoxanthine uptake): 95%
[3]; [17]
  PERCENTAGE INHIBITION (3H-hypoxanthine uptake): 16.6%
[3]; [18]
  PERCENTAGE INHIBITION (3H-hypoxanthine uptake): 92%
[3]; [19]
  PERCENTAGE INHIBITION (3H-hypoxanthine uptake): 95%
[3]; [20]
  PERCENTAGE INHIBITION (3H-hypoxanthine uptake): 100%
[3]; [8]
  PERCENTAGE INHIBITION (3H-hypoxanthine uptake): 100%
[3]; [21]
  PERCENTAGE INHIBITION (3H-hypoxanthine uptake): 58.6%
[3]; [22]
  PERCENTAGE INHIBITION (3H-hypoxanthine uptake): 100%
[3]; [23]
  PERCENTAGE INHIBITION (3H-hypoxanthine uptake): 100%
[3]; [24]
  PERCENTAGE INHIBITION (3H-hypoxanthine uptake): 100%
[3]; [25]
  PERCENTAGE INHIBITION (3H-hypoxanthine uptake): 100%
[3]; [9]
  PERCENTAGE INHIBITION (3H-hypoxanthine uptake): 100%
[3]; chloroquine 31 and 62 nM
  effects of the experimental drug at low chloroquine concentrations: Effects of the experimental drug was also seen
P. falciparum (RB-1); Plasmodium falciparum, 0.5 μg/ml, 48 h, FIG. 2, read-out: inhibition of growth of P. falciparum
  inhibition at 0.5 µg/mL: > 50%
P. falciparum (RB-1); summary statement
  activity against the malaria microorganism Plasmodium falciparum: good activity
[4]
  inhibition at 0.125 µg/mL: 29.8%
  inhibition at 0.25 µg/mL: 10.4%
  inhibition at 0.5 µg/mL: 41.7%
  inhibition at 1 µg/mL: 46.6%

Source: US5763442A, “Anti-parasitic activity” (Universiteit Van Pretoria, priority 1995, dated 1998)
